Test results taken from the NIST ThermoML archive (doi:10.1016/j.jct.2007.02.004).

What was measured:
[1] = xn = mol fraction of the nth substance listed; conditions: 101 kPa, Liquid
[2] = 293.15 K; 101.33 kPa; Liquid
[3] = refractive index (Na D-line) (dimensionless); conditions: 293.15 K; 101.33 kPa; Liquid; Standard Abbe refractometry

CC(=O)c1ccccc1 [acetophenone] + CCCCCCO
mass density [kg/m3], [1]
Conditions | 293.15 K | 303.15 K | 313.15 K | 323.15 K
x1 = 0.0498 | 828.67 | 821.42 | 813.97 | 806.47
x1 = 0.1009 | 838.84 | 831.49 | 823.85 | 816.28
x1 = 0.1517 | 848.99 | 841.56 | 833.75 | 826.11
x1 = 0.2106 | 860.83 | 853.32 | 845.32 | 837.59
x1 = 0.2474 | 868.27 | 860.71 | 852.58 | 844.8
x1 = 0.3028 | 879.54 | 871.9 | 863.61 | 855.74
x1 = 0.3426 | 887.68 | 879.99 | 871.57 | 863.65
x1 = 0.3978 | 899.04 | 891.28 | 882.7 | 874.71
x1 = 0.4512 | 910.1 | 902.26 | 893.55 | 885.48
x1 = 0.4985 | 919.95 | 912.05 | 903.23 | 895.1
x1 = 0.5526 | 931.29 | 923.31 | 914.38 | 906.19
x1 = 0.6071 | 942.79 | 934.73 | 925.7 | 917.44
x1 = 0.6491 | 951.7 | 943.59 | 934.49 | 926.17
x1 = 0.7101 | 964.72 | 956.53 | 947.35 | 938.95
x1 = 0.7485 | 972.96 | 964.73 | 955.5 | 947.06
x1 = 0.8019 | 984.49 | 976.21 | 966.9 | 958.4
x1 = 0.8521 | 995.4 | 987.06 | 977.72 | 969.16
x1 = 0.9045 | 1006.85 | 998.46 | 989.09 | 980.48
x1 = 0.9554 | 1018.05 | 1009.61 | 1000.23 | 991.56

CC(=O)c1ccccc1 [acetophenone]
Conditions | mass density [kg/m3] | refractive index
[2] | 1027.93 | –
[3] | – | 1.5336

CCOC(=O)OCC [diethyl carbonate] + CCCCCCO
mass density [kg/m3], [1]
Conditions | 293.15 K | 303.15 K | 313.15 K | 323.15 K
x1 = 0.0502 | 825.96 | 818.55 | 811.04 | 803.29
x1 = 0.1123 | 834.86 | 827.16 | 819.37 | 811.3
x1 = 0.1499 | 840.29 | 832.48 | 824.54 | 816.2
x1 = 0.2103 | 849.1 | 841.04 | 832.78 | 824.2
x1 = 0.2508 | 855.05 | 846.79 | 838.35 | 829.57
x1 = 0.3121 | 864.19 | 855.69 | 846.97 | 837.88
x1 = 0.3576 | 871.02 | 862.23 | 853.42 | 844.05
x1 = 0.4113 | 879.15 | 870.21 | 861.12 | 851.48
x1 = 0.4632 | 887.08 | 877.88 | 868.59 | 858.73
x1 = 0.5111 | 894.51 | 885.13 | 875.61 | 865.59
x1 = 0.552 | 900.88 | 891.35 | 881.55 | 871.51
x1 = 0.6008 | 908.59 | 898.87 | 888.91 | 878.65
x1 = 0.6498 | 916.39 | 906.42 | 896.35 | 885.85
x1 = 0.7108 | 926.19 | 915.93 | 905.65 | 894.96
x1 = 0.7554 | 933.45 | 923.08 | 912.55 | 901.77
x1 = 0.8112 | 942.65 | 932.03 | 921.16 | 910.41
x1 = 0.8501 | 949.13 | 938.29 | 927.49 | 916.42
x1 = 0.9002 | 957.5 | 946.57 | 935.57 | 924.3
x1 = 0.9555 | 966.89 | 955.77 | 944.49 | 933.24

CCOC(=O)OCC [diethyl carbonate]
Conditions | mass density [kg/m3] | refractive index
[2] | 974.65 | –
[3] | – | 1.3845

CCCCCCO [hexan-1-ol]
Conditions | mass density [kg/m3] | refractive index
[2] | 818.84 | –
[3] | – | 1.4178

CC(=O)c1ccccc1 [acetophenone] + CCOC(=O)OCC
mass density [kg/m3], [1]
Conditions | 293.15 K | 303.15 K | 313.15 K | 323.15 K
x2 = 0.0511 | 1025.44 | 1016.4 | 1007.58 | 998.79
x2 = 0.1014 | 1023.08 | 1014.09 | 1005.19 | 996.27
x2 = 0.1501 | 1020.74 | 1011.77 | 1002.73 | 993.68
x2 = 0.1996 | 1018.43 | 1009.35 | 1000.2 | 991.08
x2 = 0.2465 | 1016.19 | 1007.04 | 997.78 | 988.56
x2 = 0.3041 | 1013.28 | 1004.02 | 994.63 | 985.24
x2 = 0.3467 | 1011.14 | 1001.78 | 992.31 | 982.8
x2 = 0.4001 | 1008.46 | 998.99 | 989.35 | 979.74
x2 = 0.4507 | 1005.87 | 996.27 | 986.55 | 976.77
x2 = 0.4888 | 1003.88 | 994.18 | 984.35 | 974.49
x2 = 0.5506 | 1000.64 | 990.73 | 980.71 | 970.76
x2 = 0.6038 | 997.77 | 987.73 | 977.48 | 967.47
x2 = 0.6498 | 995.25 | 985.06 | 974.69 | 964.54
x2 = 0.7104 | 991.92 | 981.54 | 971.04 | 960.63
x2 = 0.7513 | 989.53 | 979.05 | 968.47 | 957.86
x2 = 0.8078 | 986.29 | 975.68 | 964.89 | 954.13
x2 = 0.8522 | 983.66 | 972.91 | 961.99 | 951.07
x2 = 0.8993 | 980.83 | 969.91 | 958.99 | 947.76
x2 = 0.9488 | 977.82 | 966.78 | 955.63 | 944.32
